According to patent US11020468B2, “Compositions, methods and therapies for administering antigen peptide” (priority 2010, dated 2021):

Assays:
P. acnes (ATCC6919) = test: Anti-inflammatory effect of peptides against intradermic inflammation caused by P. acnes in mice; assay type: in vivo, Balb/c mice; conditions: for anti-inflammatory effect against inflammation caused by P. acnes: vs PBS
Protocol: Living bacterial cells of P. acnes were put in a deaerated physiological saline while keeping an anaerobic condition to prepare a suspension with the number of the living bacterial cells of P. acnes of 5×10^7 cells/ml, 1×10^8 cells/ml, or 5×10^8 cells/ml. The anaerobic condition was kept by spraying a nitrogen gas. The number of the living bacterial cells of P. acnes was calculated based on the assumption that OD measurement value of 0.98-1.02 at 550 nm measured by a spectrophotometer corresponds to 5×10^8 cells/ml, with reference to Ramstad S. et al., Photochem. Photobiol. Sci., 2006, 5, 66-72.
50 μl of the prepared suspension of P. acnes was intradermically injected into shaven abdominal midlines, neck portions, lumbar dorsal portions, tail root dorsal portions, and auricles of male Balb/c mice (9-10 weeks old). The inflammatory areas (major axis×minor axis: mm^2) at individual portions to which the suspension was injected intradermically were measured at predetermined times. Each group consisted of five individuals.
Accordingly, the anti-inflammatory effects of individual peptides were determined under the same conditions, i.e. by intradermically injecting 50 μl of P. acnes (5×10^8 cells/ml) into the abdominal midline and measuring the inflammatory area (mm^2) five days after the injection. FIG. 3 illustrates the procedure for examining the anti-inflammatory effect.
(§1) FIG. 3 is a drawing schematically illustrating the procedure for examining the anti-inflammatory effect. […] Then, P. acnes was intradermically injected into the abdominal midlines of the mice, and the inflammatory areas were measured 5 days after the injection (Day “23” in FIG. 3). Each group consisted of 10 mice. As Comparative Examples, there were prepared a group of mice to which PBS without PepA was administered and a group of mice to which PepB or PepC was administered instead of PepA, and P. acnes was injected into the groups similarly.
The anti-inflammatory effects of individual peptides were examined using an inflammation causing system under the same conditions as in Example 4 except that the peptides to be administered to mice before injection of P. acnes were changed from PepA, PepB, and PepC to PepA and PepD.

[1] = system: acne-patient-derived P. acnes (patient strains 1-3); test: Anti-inflammatory effect of PepA against inflammation caused by patient-derived P. acnes in mice; assay type: in vivo; conditions: for P (inflammatory area compared with control group given PBS): 5 days after injection
Protocol: as §1
The anti-inflammatory effect of PepA was examined by the same procedure as in Example 5 except that bacterial cells of P. acnes to be injected into mice were the acne-patient-derived bacterial cells of P. acnes which were isolated in Example 6.
FIG. 7 is a graph showing the result of intradermically injecting, after immunization by PepA, the patient strains 1-3 (P1-P. acnes to P3-P. acnes) to the abdominal midlines of mice and measuring inflammatory areas of the mice 5 days after the injection.

[2] = Example 5, same conditions as Example 4
[3] = Example 4, 40 μg/50 μl intradermal, three times, area 5 days after P. acnes injection into abdominal midline
[4] = Example 4, 40 μg/50 μl intradermal, three times, area 5 days after injection

Sequence	P (inflammatory area compared with control group given PBS) (P. acnes (ATCC6919); [2])	anti-inflammatory effect against inflammation caused by P. acnes (P. acnes (ATCC6919); [2])	P (inflammatory area compared with control group given PBS) (P. acnes (ATCC6919); [3])	anti-inflammatory effect against inflammation caused by P. acnes (P. acnes (ATCC6919); [4])	anti-inflammatory effect against injection of patient strains ([1]; each of patient strains 1-3, vs PBS)	P (inflammatory area compared with control group given PBS) ([1]; patient strain 1)	P (inflammatory area compared with control group given PBS) ([1]; patient strain 2)	P (inflammatory area compared with control group given PBS) ([1]; patient strain 3)
KDADKDNPTYQKV (Propionibacterium acnes) [PepD, residues 260-272 of P. acnes membrane protein YP_056445]	0.00175	statistically significantly reduced inflammatory area						
GRKPDTNKRSWHRKASR [PepB, reference compound]			1	do not exhibit the anti-inflammatory effect				
IDQVREYRHRDDDDDEDPGEDG [PepC, reference compound]			0.1655	do not exhibit the anti-inflammatory effect				
AIQEKYGDDRERAG (Propionibacterium acnes) [PepA, residues 90-103 of P. acnes membrane protein AAT84059]	0.0012	statistically significantly reduced inflammatory area	0.00865	statistically significantly reduced inflammatory area	statistically significantly reducing an inflammatory area	0.0252	0.0476	0.0237
